# Calls of active or inactive are those of the source. The rule behind the calls is not given here.
# Key:
# [1] = molecular target: Histone deacetylase (HDAC1 and HDAC2) (Homo sapiens, UniProt Q13547+Q92769); test: Inhibition of HDAC1/HDAC2 in human HeLa cell nuclear extract using Boc-Lys(Ac)-AMC as substrate and measured by fluorometric method; assay type: cell-based
# Histone deacetylase 8 = molecular target: T1, Histone deacetylase 8 (Homo sapiens, UniProt Q9BY41); test: Inhibition of HDAC8 in human HeLa cell nuclear extract using Boc-Lys(Ac)-AMC or Boc-Lys(triflouroacetyl)-AMC as substrate incubated for 30 mins and measured by fluorescence assay; assay type: cell-free
# T1 sequence (Q9BY41 whole entry): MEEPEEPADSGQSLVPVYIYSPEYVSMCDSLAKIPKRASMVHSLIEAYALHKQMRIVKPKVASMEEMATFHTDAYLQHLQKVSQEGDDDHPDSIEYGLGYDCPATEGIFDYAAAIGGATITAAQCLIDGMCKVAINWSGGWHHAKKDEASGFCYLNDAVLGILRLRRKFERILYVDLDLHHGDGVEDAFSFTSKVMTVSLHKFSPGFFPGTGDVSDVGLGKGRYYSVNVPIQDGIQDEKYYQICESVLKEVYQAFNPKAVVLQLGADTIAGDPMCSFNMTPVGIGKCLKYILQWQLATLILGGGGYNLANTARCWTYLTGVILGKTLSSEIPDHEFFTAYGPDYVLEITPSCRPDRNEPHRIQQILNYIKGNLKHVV
# Calf thymus DNA = test: Binding affinity to calf thymus DNA at 50 uM incubated for 30 mins and measured by UV-vis absorption spectroscopy; assay type: nucleic-acid assay; conditions: Bos taurus
# DNA = test: Binding affinity to pBR322 DNA (unknown origin) at 10 to 50 uM after 30 mins by Agarose gel electrophoresis; assay type: nucleic-acid assay; conditions: dose 10-50 µM
# HepG2 = test: Antiproliferative activity against human HepG2 cells after 48 hrs by CCK-8 assay; assay type: functional, cell-based; conditions: HepG2, 48 h
# K562 = test: Antiproliferative activity against human K562 cells after 48 hrs by CCK-8 assay; assay type: functional, cell-based; conditions: K562, 48 h
# HEL = test: Antiproliferative activity against human HEL cells after 48 hrs by CCK-8 assay; assay type: functional, cell-based
# HCT-116 = test: Induction of apoptosis in human HCT-116 cells assessed as late apoptotic cells at 1.5 uM incubated for 48 hrs by PI and annexin V-FITC staining based flow cytometry (reference value: 3.4%); assay type: functional
# [2] = molecular target: Histone deacetylase (Homo sapiens) (UniProt Q13547+O15379+Q9UBN7+Q92769+Q9UQL6+Q8WUI4+Q9BY41+Q96DB2+P56524+Q9UKV0+Q969S8); test: Inhibition of HDAC in human HCT-116 cells assessed as increase in acetylated alpha-tubulin expression expression at 0.17 to 1.5 uM incubated for 48 hrs by Western blot analysis; assay type: cell-based; conditions: dose 0.17-1.5 µM
# MC38 [3] = test: Inhibition of HDAC in mouse MC-38 cells assessed as increase in acetylated HH3 expression expression at 0.17 to 1.5 uM incubated for 48 hrs by Western blot analysis; assay type: cell-based; conditions: dose 0.17-1.5 µM
# MC38 [4] = test: Inhibition of HDAC in mouse MC-38 cells assessed as increase in acetylated alpha-tubulin expression expression at 0.17 to 1.5 uM incubated for 48 hrs by Western blot analysis; assay type: cell-based; conditions: dose 0.17-1.5 µM
# MC-38 [5] = test: Antitumor activity against mouse MC38 cells xenografted in C57BL/6 mouse assessed as tumor growth inhibition at 50 mg/kg, ip administered every 2 days for 16 consecutive days; assay type: functional; conditions: MC-38, 384 h, time 16 day, read-out: TGI
# MC-38 [6] = test: Antitumor activity against mouse MC38 cells xenografted in C57BL/6 mouse assessed as tumor growth inhibition at 100 mg/kg, ip administered every 2 days for 16 consecutive days; assay type: functional; conditions: MC-38, 384 h, time 16 day, read-out: TGI
# MC-38 [7] = test: Antitumor activity against mouse MC38 cells xenografted in C57BL/6 mouse assessed as decrease in tumor volume at 50 to 100 mg/kg, ip administered every 2 days for 16 consecutive days; assay type: functional, organism-based; conditions: dose 50-100 mg/kg, time 16.0 day
# MC-38 [8] = test: Antitumor activity against mouse MC38 cells xenografted in C57BL/6 mouse assessed as decrease in tumor weight at 50 to 100 mg/kg, ip administered every 2 days for 16 consecutive days; assay type: functional, organism-based; conditions: dose 50-100 mg/kg, time 16.0 day
# MC-38 [9] = test: Antitumor activity against mouse MC38 cells xenografted in C57BL/6 mouse assessed as decrease in Ac-HH3 expression in tumor at 50 to 100 mg/kg, ip administered every 2 days for 16 consecutive days measured by immunohistochemistry analysis; assay type: functional, organism-based; conditions: dose 50-100 mg/kg, time 16.0 day
# MC-38 [10] = test: Antitumor activity against mouse MC38 cells xenografted in C57BL/6 mouse assessed as necrosis in tumor at 50 to 100 mg/kg, ip administered every 2 days for 16 consecutive days measured by H and E staining method; assay type: functional, organism-based; conditions: dose 50-100 mg/kg, time 16.0 day
structure (smiles),measurement,setting,value
O=C(CCCCCOc1cccc(-c2nnc(-c3ccccc3)s2)c1)NO,IC50,[1],38 nM
same,IC50,Histone deacetylase 8,3030 nM
same,Activity,Calf thymus DNA,Active
same,Activity,DNA,Active
same,IC50,HepG2,1400 nM
same,IC50,K562,910 nM
same,IC50,HEL,280 nM
same,Activity,HCT-116,38.5%
same,inhibition,[2],Active
same,inhibition,MC38 [3],Active
same,inhibition,MC38 [4],Active
same,inhibition in vivo at 50 mg/kg,MC-38 [5],66%
same,inhibition in vivo at 100 mg/kg,MC-38 [6],85.2%
same,Activity,MC-38 [7],Active
same,Activity,MC-38 [8],Active
same,Activity,MC-38 [9],Active
same,Activity,MC-38 [10],Active

# From ChEMBL document CHEMBL5108012, “Discovery of 2,5-diphenyl-1,3,4-thiadiazole derivatives as HDAC inhibitors with DNA binding affinity” (Eur J Med Chem, 2022)
